# Source: PubChem BioAssay AID588711 (The Scripps Research Institute Molecular Screening Center, 2011)
# “And” between values parts separate entries of the source, which are not always exact repeats. Equal entries are not always repeated. The source made the active and inactive calls. No rule for the calls is given here.
# Biological target: Insulin-degrading enzyme (Homo sapiens) (UniProt P14735)
# Experiment: recombinant IDE inhibition, cell-free – biochemical, fluorescence polarization, counter-screen for IDE inhibitor project, late-stage follow-up (AID 588711)
# Insulin-degrading enzyme (Homo sapiens), sequence (P14735 whole entry, looked up): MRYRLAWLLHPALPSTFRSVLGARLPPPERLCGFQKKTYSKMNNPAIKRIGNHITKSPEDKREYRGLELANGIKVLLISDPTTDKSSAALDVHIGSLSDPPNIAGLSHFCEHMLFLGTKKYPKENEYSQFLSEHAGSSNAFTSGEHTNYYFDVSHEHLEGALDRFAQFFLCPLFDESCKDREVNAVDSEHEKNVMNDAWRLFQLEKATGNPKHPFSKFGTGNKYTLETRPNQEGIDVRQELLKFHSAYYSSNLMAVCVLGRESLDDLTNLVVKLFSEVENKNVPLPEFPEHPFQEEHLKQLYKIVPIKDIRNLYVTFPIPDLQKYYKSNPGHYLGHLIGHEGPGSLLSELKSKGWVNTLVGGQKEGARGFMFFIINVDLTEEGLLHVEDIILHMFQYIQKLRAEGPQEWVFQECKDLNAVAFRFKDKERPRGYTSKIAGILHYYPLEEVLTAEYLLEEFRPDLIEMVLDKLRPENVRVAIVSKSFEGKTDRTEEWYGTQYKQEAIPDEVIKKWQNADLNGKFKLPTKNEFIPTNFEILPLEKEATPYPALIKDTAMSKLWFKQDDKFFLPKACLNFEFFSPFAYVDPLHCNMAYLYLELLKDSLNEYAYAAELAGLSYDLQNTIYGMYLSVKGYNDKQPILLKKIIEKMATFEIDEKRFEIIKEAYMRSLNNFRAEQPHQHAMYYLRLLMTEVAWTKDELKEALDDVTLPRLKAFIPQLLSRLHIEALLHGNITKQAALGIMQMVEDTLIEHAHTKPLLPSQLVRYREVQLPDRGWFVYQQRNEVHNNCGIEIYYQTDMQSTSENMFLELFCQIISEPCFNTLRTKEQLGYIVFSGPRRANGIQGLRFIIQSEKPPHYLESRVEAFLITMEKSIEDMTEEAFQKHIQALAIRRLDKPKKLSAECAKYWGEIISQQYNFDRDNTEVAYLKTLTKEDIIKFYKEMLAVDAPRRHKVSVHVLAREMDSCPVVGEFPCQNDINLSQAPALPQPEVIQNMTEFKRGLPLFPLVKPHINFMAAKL
row,IC50,Compound
1,> 54.7 µM (inactive),O=C(CSc1nnc(-c2cccc(Cl)c2)n1Cc1ccco1)Nc1ccccc1C(F)(F)F
2,1.71 µM,O=c1c2ccccc2sn1-c1cc(S(=O)(=O)N2CCOCC2)ccc1N1CCOCC1
3,> 18.2 µM (inactive),Nc1c(C(=O)Nc2nccs2)sc2nc(-c3cccs3)cc(C(F)(F)F)c12
4,> 54.7 µM (inactive),Cc1ccc(NC(=O)CSc2nnc(-c3cccc(Cl)c3)n2Cc2ccco2)c(C)c1
5,> 54.7 µM (inactive),Clc1cccc(-c2nnc(SCc3nc4ccccc4[nH]3)n2-c2ccccc2)c1
6,> 54.7 µM (inactive),O=C(Nc1cccc(C(F)(F)F)c1)c1csc(Cc2cccc(C(F)(F)F)c2)n1
7,> 54.7 µM (inactive),O=C(Nc1ccc2oc(-c3cccnc3)nc2c1)c1ccc2c(c1)OCCO2
8,> 54.7 µM (inactive),Cn1c(SCc2nc3ccccc3[nH]2)nnc1-c1cccc(Cl)c1
9,8.54 µM,CCOc1ccc2[nH]c3c(N4CCN(C(=O)c5ccco5)CC4)ncnc3c2c1
10,inactive,COc1ccc(C(=O)N2CCN(C(=O)C3COc4ccccc4O3)CC2)cc1OC (stereo not given)
11,> 54.7 µM (inactive),Cn1c(=O)c(C(=O)CN2CCCc3ccccc32)c(N)n(Cc2ccccc2)c1=O
12,> 54.7 µM (inactive),O=C(Nc1cccc(C(F)(F)F)c1)c1csc(-c2ccccc2)n1
13,> 54.7 µM (inactive),O=C(CSc1nnc(-c2cccc(Cl)c2)n1Cc1ccco1)Nc1ccc2c(c1)OCCO2
14,2.8 µM,O=C(Nc1cccc(C(F)(F)F)c1)c1csc(-c2ccncc2)n1
15,> 54.7 µM (inactive),Cc1ccc(-c2nc(C(=O)Nc3cccc(C(F)(F)F)c3)cs2)cc1
16,> 54.7 µM (inactive),O=C(Nc1cccc(C(F)(F)F)c1)c1csc(-c2cccc(C(F)(F)F)c2)n1
17,> 54.7 µM (inactive),O=C(CSc1nnc(-c2cccc(Cl)c2)n1Cc1ccco1)c1ccc2ccccc2c1
18,> 54.7 µM (inactive),COc1ccc(-c2nc(C(=O)Nc3cccc(C(F)(F)F)c3)cs2)cc1
19,> 54.7 µM (inactive),O=C(Nc1cc(C(F)(F)F)cc(C(F)(F)F)c1)c1csc(-c2ccncc2)n1
20,2.34 µM,Clc1cccc(-c2nnc(SCc3nc4ccccc4[nH]3)n2Cc2ccco2)c1
21,> 54.7 µM (inactive),Cc1nc(-c2cccnc2)sc1C(=O)Nc1cccc(C(F)(F)F)c1
22,6.14 µM,Cc1c(CCC(=O)NCCCn2ccnc2)c(=O)oc2cc3oc4c(c3cc12)CCCC4
23,> 54.7 µM (inactive),Cc1ccc(C)c(N2C(=N)S/C(=C\c3ccc(-c4ccccc4C(=O)O)o3)C2=O)c1
24,> 54.7 µM (inactive),COc1ccc(NC(=O)CSc2nnc(CN3CCOCC3)n2C)cc1Cl
25,7.21 µM and 6.15 µM,Cc1cccc(-c2nnc(SCc3nc4ccccc4[nH]3)n2Cc2ccco2)c1
26,inactive,O=C(C1CC1)N1CCN(c2ccnc3cc(Cl)ccc23)CC1
27,> 54.7 µM (inactive),CC(Sc1nnc(-c2cccnc2)n1-c1ccccc1F)C(=O)N1CCCc2ccccc21 (stereo not given)
28,> 54.7 µM (inactive),O=C(CSc1nnc(-c2cccc(Cl)c2)n1Cc1ccco1)Nc1ccc2cn[nH]c2c1
29,5.9 µM,COc1cccc(-c2nnc(SCc3nc4ccccc4[nH]3)n2Cc2ccco2)c1
30,inactive,COc1cc(/C=C2\SC(=S)N(NC(C)=O)C2=O)ccc1OC(=O)c1ccco1
